Measured values reported in patent US8168648B2, “Camptothecin derivatives and uses thereof” (Taiwan Liposome Co., Ltd., priority 2009, dated 2012).

Key:
Type in all cases: cell-based
PC14PE6/AS2 = experiment: In vitro cytotoxicity assay (SRB), PC14PE6/AS2; conditions: PC14PE6/AS2 (Non-small cell lung cancer), 72 hours of incubation
MCF-7 = experiment: In vitro cytotoxicity assay (SRB), MCF-7; conditions: MCF7, MCF-7 (Human breast cancer), 72 hours of incubation
HCT-116 = experiment: In vitro cytotoxicity assay (SRB), HCT-116; conditions: HCT-116 (Human colon cancer), 72 hours of incubation
DMS-114 = experiment: In vitro cytotoxicity assay (SRB), DMS-114; conditions: Homo sapiens, DMS-114 (Small cell lung cancer), 72 hours of incubation
HT-29 = experiment: In vitro cytotoxicity assay (SRB), HT-29; conditions: HT-29 (Human colon cancer), 72 hours of incubation

SMILES	IC50 (PC14PE6/AS2)	IC50 (MCF-7)	IC50 (HCT-116)	IC50 (DMS-114)	IC50 (HT-29)
CC[C@@]1(OC(=O)[C@@H](C)O)C(=O)OCc2c1cc1n(c2=O)Cc2cc3c(CN(C)C)c(O)ccc3nc2-1 [S,R-topotecan lactate (U1), S,R-topotecan lactate]	21 nM	194 nM	58 nM	53 nM	56 nM
CC[C@@]1(OC(=O)[C@H](C)O)C(=O)OCc2c1cc1n(c2=O)Cc2cc3c(CN(C)C)c(O)ccc3nc2-1 [S,S-topotecan lactate (U2), S,S-topotecan lactate]	74 nM	143 nM	45 nM	26 nM	56 nM
